Results taken from US6849596B1, “Regulatory/unfolding peptides of ezrin” (priority 1999, dated 2005).
Entries after “also recorded” stand apart in the source; their conditions may differ.

How the values were obtained:
[1] = system: transplanted sarcoma of the uterus SM-322; assay: Transplanted mouse sarcoma SM-322 model; format: in vivo, CBA mice; conditions: control 12-16
[2] = system: human Peripheral Blood Mononuclear Cells; assay: In vitro activation of human PBMC, tritiated thymidine incorporation; format: cell-based; conditions: for incorporation of 3H thymidine: three days, Control 370
Experimental: Peripheral Blood Mononuclear Cells (PBMC) were separated from the peripheral blood of a […] donor using the standard method of fractionation in a ficoll gradient. The PBMC were suspended in culture medium containing RPMI1640 medium plus 10% fetal calf serum, 1 mM L-glutamin and antibiotics (BM). The cell suspension was placed in wells of a 96 hole microwell plate for cell cultivation, (100 microliters of suspension containing 100,000 cells per well). […] The negative control well contained BM but no peptide. The plate was incubated at 37° C. for three days then radioactive ^3H thymidine was added to a final concentration of 1 microcurie per ml. The incorporation of ^3H thymidine into the DNA of the cells was measured using a betacounter using standard procedures. The experiment was repeated twice and the results expressed as an average of the two experiments in radioactive counts per minute.

[3] = system: HLA Class I on human White Blood Cells; assay: Expression of MHC (HLA) Class I on human White Blood Cells; format: cell-based; conditions: 0.003 micrograms per ml
Description: A cell specific effect of this activation was an increase in the population of monocytes expressing MHC Class I and a decrease in the population of CD8 lymphocytes expressing MHC Class I.

[4] = system: transplanted sarcoma of the uterus SM-322; assay: Transplanted mouse sarcoma SM-322 model; format: in vivo, CBA mice; conditions: for Percent decrease in tumour volume relative to control: SM-322
Description: Anticancer Activity of Hepreceptor Peptides on the Growth of Transplanted Sarcoma of the Uterus SM-322 and on Cancer of the Uterine Cervix CUS-5 Performed in CBA Mice Using Rupe312 and Rupe414 as Examples Transplanted mouse sarcoma SM-322 model (endothelial tumour). Primary tumours of the uterus were induced in female mice using 1.2 dimethylhydrazine. A few primary tumours were transplanted into syngeneic mice. The first visible nodules started to appear at the point of transplation after 4 days. The life expectancy of the mice with transplanted tumours was 22-24 days. […] The tumours were introduced as a 0.5 ml of tumour suspension (1 g tumour per 10 ml of Igla medium) and ten mice used in each treatment group. […] The average percent decrease of tumour volume relative to the control group was recorded at three time points. The longevity of the mice in the treatment groups and control groups was compared and the histology of the tumours between control and treatment groups was compared.

activated macrophages = assay: Induction of activated macrophages in mice (peritoneal exsudate); format: in vivo
Experimental: Groups of three mice (CDAxC57B1)F1 weighing 22-24 g were injected abdominally with each peptide solution of 1.0 microgram of peptide dissolved in 0.5 ml of physiological saline. After 24 hours the animals were killed using neck vertebrae dislocation and 5 ml of Hanks solution was injected into the abdomen. The abdomen was massaged for 30 seconds and then the peritoneal liquid was collected. The collected liquid was filtered using a nylon filter into siliconised tubes containing 1.5 mg/ml EDTA. The number of nucleus containing cells in […] of filtrate were then assessed under microscopic examination using a Nihon hemocytometer. The cells were pelleted by centrifugation for 5 minutes at 800 g, the pellet was resuspended in fetal calf serum, the cell suspension was dropped on to a glass microscope slide and dried then fixed in methanol and stained with Romanovski's colouring agent. Morphological analysis of the cells of the peritoneal exsudate were performed using an Opton optical microscope at 1600 magnifications. The number of lymphocytes, resting macrophages, activated macrophages, granulocytes and other cell types were assessed.

[5] = system: transplanted cervical cancer CUC-5; assay: Transplanted mouse cervical cancer model CUC-5; format: in vivo, CBA mice; conditions: for Percent decrease in tumour volume relative to control / Days of life expectancy: CUC-5; for Days of life expectancy: control 47-76
Description: Anticancer Activity of Hepreceptor Peptides on the Growth of Transplanted Sarcoma of the Uterus SM-322 and on Cancer of the Uterine Cervix CUS-5 Performed in CBA Mice Using Rupe312 and Rupe414 as Examples
Transplanted mouse cervical cancer model CUC-5 (epithelial tumour)
Primary tumours were induced in female mice using methylcholantrene. A few primary turnouts were then auto-transplanted into the uterine cervix. The life expectancy of mice with transplanted tumours was 43 days.
CBA female mice weighed 21.4=/−1.2 g. and were 2-3 months old. The tumours were introduced as a 0.5 ml of tumour suspension (1 g tumour per 10 ml of Igla medium) and ten mice used in each treatment group.
Lyophylised peptide were dissolved in sterile physiological saline immediately before use in three concentrations. 0.5 ml of solution was injected twice weekly into the peritoneum of the mice for the duration of the experiment. Three different concentrations of peptide were used leading to three final doses per injection per mouse of 10, 1.0 and 0.1 micrograms.
The average percent decrease of tumour volume relative to the control group was recorded at three time points. The longevity of the mice in the treatment groups and control groups was compared and the histology of the tumours between control and treatment groups was compared.

[6] = 0.1 Microg/mouse IP twice weekly
[7] = 10 Microg/mouse IP twice weekly
[8] = 0.1 Microg/mouse IP twice weekly, Day 8
[9] = 0.1 Microg/mouse IP twice weekly, Day 12
[10] = 1 Microg/mouse IP twice weekly, Day 8
[11] = 1 Microg/mouse IP twice weekly, Day 12
[12] = 10 Microg/mouse IP twice weekly, Day 8
[13] = 10 Microg/mouse IP twice weekly, Day 12

**Q.** With “KRRETVEREKE (Hepreceptor peptide) [Rupe414]” as the sequence, how does the “Days of life expectancy” value [1, 6] read?
**A.** Its value is 12 to 19 days.

**Q.** What about the “Days of life expectancy” value ([1]; 1 Microg/mouse IP twice weekly) of the same sequence?
**A.** Its value is 12 to 20 days.

**Q.** What about the “Days of life expectancy” value [1, 7] of the same sequence?
**A.** Its value is 13 to 20 days.

**Q.** What about the “activity relative to HEP1” value ([2]; PBMC activation, thymidine incorporation) of the same sequence?
**A.** The value was “significantly more active than HEP1; also recorded: ten fold higher activity than HEP1”.

**Q.** What about the “concentration of peak activity” value ([2]; PBMC proliferation) of the same sequence?
**A.** The value was “around 3 nanograms/ml”.

**Q.** What about the “incorporation of 3H thymidine” value ([2]; Peptide 0.0001 micro g/ml) of the same sequence?
**A.** The value was 493 radioactive counts per minute.

**Q.** And the “incorporation of 3H thymidine” value ([2]; Peptide 0.0003 micro g/ml)?
**A.** The value was 580 radioactive counts per minute.

**Q.** And the “incorporation of 3H thymidine” value ([2]; Peptide 0.001 micro g/ml)?
**A.** The value was 684 radioactive counts per minute.

**Q.** And the “incorporation of 3H thymidine” value ([2]; Peptide 0.003 micro g/ml)?
**A.** The value was 2087 radioactive counts per minute.

**Q.** What about the “incorporation of 3H thymidine” value ([2]; Peptide 0.01 micro g/ml) of the same sequence?
**A.** Its value is 650 radioactive counts per minute.

**Q.** What about the “incorporation of 3H thymidine” value ([2]; Peptide 0.03 micro g/ml) of the same sequence?
**A.** Its value is 596 radioactive counts per minute.

**Q.** And the “incorporation of 3H thymidine” value ([2]; Peptide 0.1 micro g/ml)?
**A.** The value was 485 radioactive counts per minute.

**Q.** What about the “incorporation of 3H thymidine” value ([2]; Peptide 0.3 micro g/ml) of the same sequence?
**A.** The value was 492 radioactive counts per minute.

**Q.** And the “incorporation of 3H thymidine” value ([2]; Peptide 1 micro g/ml)?
**A.** The value was 449 radioactive counts per minute.

**Q.** What about the “incorporation of 3H thymidine” value ([2]; Peptide 3 micro g/ml) of the same sequence?
**A.** Its value is 437 radioactive counts per minute.

**Q.** What about the “incorporation of 3H thymidine” value ([2]; Peptide 10 micro g/ml) of the same sequence?
**A.** Its value is 394 radioactive counts per minute.

**Q.** What about the “relative activity in lowering intensity of HLA expression on WBC” value ([3]; 24 hours) of the same sequence?
**A.** Its value is “more active than HEP1”.

**Q.** And the “Density of cell surface expression of HLA Class I, rebased to 100 for control” value (shortened to “Density”) ([3]; B and NK cells, 24 hours)?
**A.** Its value is 77.

**Q.** What about the “Percentage of cell population expressing HLA Class I, rebased to 100 for control” value (shortened to “Percentage”) ([3]; B and NK cells, 24 hours) of the same sequence?
**A.** Its value is 101.

**Q.** And the “Density” value ([3]; CD4 lymphocytes, 24 hours)?
**A.** The value was 77.

**Q.** And the “Percentage” value ([3]; CD4 lymphocytes, 24 hours)?
**A.** The value was 105.

**Q.** What about the “Density” value ([3]; CD8 lymphocytes, 24 hours) of the same sequence?
**A.** The value was 76.

**Q.** And the “Percentage” value ([3]; CD8 lymphocytes, 24 hours)?
**A.** The value was 89.

**Q.** And the “Density” value ([3]; Granulocytes, 24 hours)?
**A.** The value was 85.

**Q.** What about the “Percentage” value ([3]; Granulocytes, 24 hours) of the same sequence?
**A.** The value was 98.

**Q.** And the “Percentage” value ([3]; Monocytes/Macrophages, 24 hours)?
**A.** Its value is 109.

**Q.** And the “Density” value ([3]; Monocytes/Macrophages, 24 hours at 37° C.)?
**A.** Its value is 83.

**Q.** What about the “Percent decrease in tumour volume relative to control” value [4, 8] of the same sequence?
**A.** Its value is 68%.

**Q.** What about the “Percent decrease in tumour volume relative to control” value [4, 9] of the same sequence?
**A.** Its value is 39%.

**Q.** What about the “Percent decrease in tumour volume relative to control” value ([4]; 0.1 Microg/mouse IP twice weekly, Day 15) of the same sequence?
**A.** The value was 22%.

**Q.** What about the “Percent decrease in tumour volume relative to control” value [4, 10] of the same sequence?
**A.** The value was 68%.

**Q.** What about the “Percent decrease in tumour volume relative to control” value [4, 11] of the same sequence?
**A.** The value was 28%.

**Q.** What about the “Percent decrease in tumour volume relative to control” value ([4]; 1 Microg/mouse IP twice weekly, Day 15) of the same sequence?
**A.** Its value is 43%.

**Q.** What about the “Percent decrease in tumour volume relative to control” value [4, 12] of the same sequence?
**A.** Its value is 65%.

**Q.** And the “Percent decrease in tumour volume relative to control” value [4, 13]?
**A.** Its value is 43%.

**Q.** And the “Percent decrease in tumour volume relative to control” value ([4]; 10 Microg/mouse IP twice weekly, Day 15)?
**A.** Its value is 43%.

**Q.** What about the “histology of the tumours” value ([4]; both models (SM-322 and CUC-5)) of the same sequence?
**A.** Its value is “non bleeding ulcerous destruction of the centre of tumours”.

**Q.** And the “activity in increasing activated macrophages relative to HEP1” value (activated macrophages; 1.0 microgram peptide/mouse)?
**A.** Its value is “significantly more active than HEP1”.

**Q.** And the “Activated macrophages as a percent of total number of cells” value (activated macrophages; 1.0 microgram peptide/mouse injected abdominally, after 24 hours, saline 1.9)?
**A.** The value was 8.5%.

**Q.** What about the “Percent decrease in tumour volume relative to control” value [5, 8] of the same sequence?
**A.** The value was 50%.

**Q.** And the “Percent decrease in tumour volume relative to control” value [5, 9]?
**A.** Its value is 18%.

**Q.** And the “Percent decrease in tumour volume relative to control” value ([5]; 0.1 Microg/mouse IP twice weekly, Day 19)?
**A.** Its value is 57%.

**Q.** What about the “Days of life expectancy” value [5, 6] of the same sequence?
**A.** The value was 47 to 76 days.

**Q.** And the “Percent decrease in tumour volume relative to control” value [5, 10]?
**A.** The value was 50%.

**Q.** And the “Percent decrease in tumour volume relative to control” value [5, 11]?
**A.** The value was 16%.

**Q.** What about the “Percent decrease in tumour volume relative to control” value ([5]; 1 Microg/mouse IP twice weekly, Day 19) of the same sequence?
**A.** The value was 43%.

**Q.** What about the “Days of life expectancy” value ([5]; 1 Microg/mouse IP twice weekly) of the same sequence?
**A.** Its value is 36 to 76 days.

**Q.** What about the “Percent decrease in tumour volume relative to control” value [5, 12] of the same sequence?
**A.** Its value is 50%.

**Q.** And the “Percent decrease in tumour volume relative to control” value [5, 13]?
**A.** The value was 16%.

**Q.** What about the “Percent decrease in tumour volume relative to control” value ([5]; 10 Microg/mouse IP twice weekly, Day 19) of the same sequence?
**A.** The value was 48%.

**Q.** And the “Days of life expectancy” value [5, 7]?
**A.** Its value is 36 to 76 days.

**Q.** And the “change in life expectancy” value ([5]; slower growing transplanted cervical cancer)?
**A.** Its value is “no significant increase (or decrease) in life expectancy was detected”.
